From PubChem BioAssay (NCI)
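Test compounds were applied to cells in 96-well plates for 48 hours at 5 doses. GI50 marks 50% less growth. TGI: concentration producing complete growth inhibition.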

Columns and labels:
Test in all cases: growth of human tumour cells (NCI), 48 h
[1] = system: MCF7 breast
[2] = system: A549 NSCLC
[3] = system: UO-31 renal
[4] = system: HCC-2998 colon
[5] = system: NCI-H522 lung
[6] = system: NCI-H460 lung
[7] = system: SF-539 CNS
[8] = system: SNB-19 CNS
[9] = system: BT-549 breast
[10] = system: SF-268 CNS
[11] = system: SN12C renal
[12] = system: NCI/ADR-RES ovarian
[13] = system: MALME-3M melanoma
[14] = system: MDA-MB-435
[15] = system: SNB-75 CNS
[16] = system: HT29 colon
[17] = system: A498 renal
[18] = system: HS 578T breast
[19] = system: UACC-62 melanoma
[20] = system: SF-295 CNS
[21] = system: RPMI-8226 leukemia
[22] = system: OVCAR-3 ovarian
[23] = system: ACHN renal
[24] = system: SR leukemia
[25] = system: SK-MEL-5 melanoma
[26] = system: MOLT-4 leukemia
[27] = system: K-562 leukemia
[28] = system: PC-3 prostate
[29] = system: HCT-15 colon
[30] = system: U251 CNS
[31] = system: NCI-H226 lung
[32] = system: T-47D breast
[33] = system: IGROV1 ovarian
[34] = system: MDA-MB-231 breast
[35] = system: UACC-257 melanoma
[36] = system: NCI-H23 lung
[37] = system: EKVX NSCLC
[38] = system: LOX IMVI melanoma
[39] = system: M14 melanoma
[40] = system: CCRF-CEM leukemia
[41] = system: CAKI-1 renal
[42] = system: OVCAR-5 ovarian
[43] = system: DU-145 prostate
[44] = system: KM12 colon
[45] = system: SK-MEL-28 melanoma
[46] = system: SK-OV-3 ovarian
[47] = system: TK-10 renal
[48] = system: OVCAR-8 ovarian
[49] = system: HL-60(TB) leukemia
[50] = system: SK-MEL-2 melanoma
[51] = system: 786-0 renal
[52] = system: OVCAR-4 ovarian
[53] = system: COLO 205 colon
[54] = system: HOP-92 NSCLC
[55] = system: RXF 393 renal
[56] = system: HCT-116 colon
[57] = system: SW-620 colon
[58] = system: HOP-62 NSCLC

SMILES: Fc1ccc(-c2ncn(C3CCNCC3)c2-c2ccnc(Oc3ccc4c(c3)OCO4)n2)cc1
- GI50 [1]: 9.14 µM
- TGI [1]: > 25 µM
- GI50 [2]: 16.4 µM
- TGI [2]: > 25 µM
- GI50 [3]: 7.81 µM
- TGI [3]: > 25 µM
- GI50 [4]: 11.9 µM
- TGI [4]: > 25 µM
- GI50 [5]: > 25 µM
- TGI [5]: > 25 µM
- GI50 [6]: > 21.7 µM
- TGI [6]: > 25 µM
- GI50 [7]: > 25 µM
- TGI [7]: > 25 µM
- GI50 [8]: > 25 µM
- TGI [8]: > 25 µM
- GI50 [9]: > 21.3 µM
- TGI [9]: > 25 µM
- GI50 [10]: 24.4 µM
- TGI [10]: > 25 µM
- GI50 [11]: 16.7 µM
- TGI [11]: > 25 µM
- GI50 [12]: > 25 µM
- TGI [12]: > 25 µM
- GI50 [13]: 21.4 µM
- TGI [13]: > 25 µM
- GI50 [14]: > 19.5 µM
- TGI [14]: > 25 µM
- GI50 [15]: > 16.1 µM
- TGI [15]: > 25 µM
- GI50 [16]: 9.62 µM
- TGI [16]: > 25 µM
- GI50 [17]: 16 µM
- TGI [17]: > 25 µM
- GI50 [18]: > 12.7 µM
- TGI [18]: > 25 µM
- GI50 [19]: > 15.7 µM
- TGI [19]: > 25 µM
- GI50 [20]: > 20.1 µM
- TGI [20]: > 25 µM
- GI50 [21]: > 25000 nM
- TGI [21]: > 25 µM
- GI50 [22]: > 25 µM
- TGI [22]: > 25 µM
- GI50 [23]: 8.82 µM
- TGI [23]: > 25 µM
- GI50 [24]: 13.6 µM
- TGI [24]: > 25 µM
- GI50 [25]: 3.77 µM
- TGI [25]: 8.4 µM
- GI50 [26]: > 25 µM
- TGI [26]: > 25 µM
- GI50 [27]: > 23.1 µM
- TGI [27]: > 25 µM
- GI50 [28]: > 25 µM
- TGI [28]: > 25 µM
- GI50 [29]: 21.1 µM
- TGI [29]: > 25 µM
- GI50 [30]: 15.3 µM
- TGI [30]: > 25 µM
- GI50 [31]: > 17 µM
- TGI [31]: > 25 µM
- GI50 [32]: 12.7 µM
- TGI [32]: > 25 µM
- GI50 [33]: 13.9 µM
- TGI [33]: > 25 µM
- GI50 [34]: 10.5 µM
- TGI [34]: > 25 µM
- GI50 [35]: 10.5 µM
- TGI [35]: > 25 µM
- GI50 [36]: > 25 µM
- TGI [36]: > 25 µM
- GI50 [37]: > 25 µM
- TGI [37]: > 25 µM
- GI50 [38]: 12.3 µM
- TGI [38]: > 25 µM
- GI50 [39]: 10.4 µM
- TGI [39]: > 25 µM
- GI50 [40]: > 25 µM
- TGI [40]: > 25 µM
- GI50 [41]: > 20.9 µM
- TGI [41]: > 25 µM
- GI50 [42]: > 25 µM
- TGI [42]: > 25 µM
- GI50 [43]: > 25 µM
- TGI [43]: > 25 µM
- GI50 [44]: > 25 µM
- TGI [44]: > 25 µM
- GI50 [45]: 8.34 µM
- TGI [45]: > 23.1 µM
- GI50 [46]: 14.9 µM
- TGI [46]: > 25 µM
- GI50 [47]: > 25 µM
- TGI [47]: > 25 µM
- GI50 [48]: > 25 µM
- TGI [48]: > 25 µM
- GI50 [49]: > 21.3 µM
- TGI [49]: > 25 µM
- GI50 [50]: > 25 µM
- TGI [50]: > 25 µM
- GI50 [51]: > 23.8 µM
- TGI [51]: > 25 µM
- GI50 [52]: 19.7 µM
- TGI [52]: > 25 µM
- GI50 [53]: 9.25 µM
- TGI [53]: > 25 µM
- GI50 [54]: 5.21 µM
- TGI [54]: > 25 µM
- GI50 [55]: 7.88 µM
- TGI [55]: > 25 µM
- GI50 [56]: 16.8 µM
- TGI [56]: > 25 µM
- GI50 [57]: > 25000 nM
- TGI [57]: > 25 µM
- GI50 [58]: > 25 µM
- TGI [58]: > 25 µM

SMILES: Cc1ccc(S(=O)(=O)Oc2ccc3c4c(c(=O)oc3c2)CCCCCC4)cc1
- GI50 [1]: > 100 µM
- TGI [1]: > 100 µM
- GI50 [2]: > 100 µM
- TGI [2]: > 100 µM
- GI50 [3]: 27.3 µM
- TGI [3]: > 100 µM
- GI50 [4]: > 100 µM
- TGI [4]: > 100 µM
- GI50 [5]: > 100 µM
- TGI [5]: > 100 µM
- GI50 [6]: > 100 µM
- TGI [6]: > 100 µM
- GI50 [7]: > 100 µM
- TGI [7]: > 100 µM
- GI50 [8]: > 100 µM
- TGI [8]: > 100 µM
- GI50 [9]: > 100 µM
- TGI [9]: > 100 µM
- GI50 [10]: > 100 µM
- TGI [10]: > 100 µM
- GI50 [11]: > 100 µM
- TGI [11]: > 100 µM
- GI50 [12]: 5.08 µM
- TGI [12]: > 100 µM
- GI50 [13]: > 100 µM
- TGI [13]: > 100 µM
- GI50 [14]: > 100 µM
- TGI [14]: > 100 µM
- GI50 [15]: > 100 µM
- TGI [15]: > 100 µM
- GI50 [16]: 0.531 µM
- TGI [16]: > 100 µM
- GI50 [17]: 4.43 µM
- TGI [17]: > 100 µM
- GI50 [18]: > 100 µM
- TGI [18]: > 100 µM
- GI50 [19]: > 100 µM
- TGI [19]: > 100 µM
- GI50 [20]: > 100 µM
- TGI [20]: > 100 µM
- GI50 [21]: 2330 nM
- TGI [21]: > 100 µM
- GI50 [22]: > 100 µM
- TGI [22]: > 100 µM
- GI50 [23]: > 100 µM
- TGI [23]: > 100 µM
- GI50 [24]: 5.66 µM
- TGI [24]: > 100 µM
- GI50 [25]: 4.45 µM
- TGI [25]: > 100 µM
- GI50 [26]: 9.57 µM
- TGI [26]: > 100 µM
- GI50 [27]: 3.88 µM
- TGI [27]: > 100 µM
- GI50 [28]: 5.97 µM
- TGI [28]: > 100 µM
- GI50 [29]: 3.16 µM
- TGI [29]: > 100 µM
- GI50 [30]: > 100 µM
- TGI [30]: > 100 µM
- GI50 [31]: 8.31 µM
- TGI [31]: > 100 µM
- GI50 [32]: 5.05 µM
- TGI [32]: > 100 µM
- GI50 [33]: > 100 µM
- TGI [33]: > 100 µM
- GI50 [34]: > 100 µM
- TGI [34]: > 100 µM
- GI50 [35]: 8.7 µM
- TGI [35]: > 100 µM
- GI50 [36]: > 100 µM
- TGI [36]: > 100 µM
- GI50 [38]: > 100 µM
- TGI [38]: > 100 µM
- GI50 [39]: > 100 µM
- TGI [39]: > 100 µM
- GI50 [40]: 8.92 µM
- TGI [40]: > 100 µM
- GI50 [42]: > 100 µM
- TGI [42]: > 100 µM
- GI50 [43]: > 100 µM
- TGI [43]: > 100 µM
- GI50 [44]: 4.78 µM
- TGI [44]: > 100 µM
- GI50 [45]: > 100 µM
- TGI [45]: > 100 µM
- GI50 [46]: > 100 µM
- TGI [46]: > 100 µM
- GI50 [47]: > 100 µM
- TGI [47]: > 100 µM
- GI50 [48]: > 100 µM
- TGI [48]: > 100 µM
- GI50 [49]: 7.17 µM
- TGI [49]: > 100 µM
- GI50 [50]: 75 µM
- TGI [50]: > 100 µM
- GI50 [51]: > 100 µM
- TGI [51]: > 100 µM
- GI50 [52]: > 100 µM
- TGI [52]: > 100 µM
- GI50 [53]: 2.92 µM
- TGI [53]: > 100 µM
- GI50 [54]: 1.34 µM
- TGI [54]: > 100 µM
- GI50 [55]: > 100 µM
- TGI [55]: > 100 µM
- GI50 [56]: 8.04 µM
- TGI [56]: > 100 µM
- GI50 [57]: 2760 nM
- TGI [57]: > 100 µM
- GI50 [58]: > 100 µM
- TGI [58]: > 100 µM
